The record followed here is US20150038435A1, “N-TERMINALLY MODIFIED OLIGOPEPTIDES AND USES THEREOF” (Novo Nordisk A/S, priority 2012, published 2015).

One data set has as its system Chymotrypsin. Briefly: Inhibition of enzymatic degradation of a model GLP-1 (FRET substrate) by chymotrypsin. Type of data set: biochemical. As to conditions: for Slope of the initial increase in fluorescence obtained during incubation with 0.001 mg/ml Chymotrypsin: compound 1 mM; for EC50: read-out: EC50 Chymotrypsin (0.001 mg/ml), 0.001 mg/ml chymotrypsin, 37° C., ± standard error if at least 3 measurements. The method in brief:
(§1)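 MCA/DNP-labelled model GLP-1 FRET substrate (10 μl of 100 μM stock) in Dulbecco's PBS at 37° C with varying acylated peptide; fluorescence (ex 320/em 405 nm) read every minute for ≥30 min. Initial slopes from linear regression, duplicates averaged; EC50 by sigmoidal logistic fit of slope vs concentration.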

A further data set relates to Trypsin. Briefly: Inhibition of enzymatic degradation of a model GLP-1 (FRET substrate) by trypsin. Format: biochemical. As to conditions: for Slope of the initial increase in fluorescence obtained during incubation with 0.001 mg/ml Trypsin: compound 1 mM; for EC50: read-out: EC50 Trypsin (0.001 mg/ml), 0.001 mg/ml trypsin, 37° C. The method in brief:
as §1

The nature of data set [1]: Stability of N-terminally acylated peptides or oligopeptides in GI juice. Type of data set: in vitro ADME. The settings on record: degradation of the compound itself in jejunum extract from rat, read-out: t 1/2 in rat GI juice. On the procedure: 96 well plates were coated by incubating with 0.4% Bovine serum albumin (BSA) solution for minimum of 60 min. To each well, 210 μl of buffer (Hank's balanced salt solution-4-(2-hydroxyethyl)-1-piperazineethanesulfonic acid (HBSS-HEPES) buffer) with 0.005% Tween 20 and 0.001% BSA, pH 6.5 precipitated with 3 vol. cold 96% ethanol (EtOH) w. 1% TFA), 30 μl of a substrate (100 μM insulin analogue or GLP-1 analogue in buffer) and 30 μl of N-terminally acylated peptide or oligopeptide of the invention (10 mM) were added. The plates were pre-incubated (before adding GI juice) for 60 min at 37° C. After addition of 30 μl of GI juice (10-times diluted in buffer), the plates were incubated for 60 min/37° C. on shaker. Samples (40 μl) were taken at 0, 5, 10, 20, 30 and 60 min, stopped with 3 vol. cold 96% EtOH w. 1% TFA and spun down in plates (4500 rpm for 10 min). Samples were diluted 5 times with the buffer prior to LC-MS analysis. Standard samples (0.1, 0.5, 1.0, 5.0, 10.0 μM) were prepared and treated as the samples. Standard curve was analysed both at the beginning and the end of the sequence. Two replicates of each tested conditions were included. Ion suppression was assessed by analyzing a standard at 1 μM and at 10 μM with 1 mM inhibitor present. Intact insulin or GLP-1 analoues were determined at each sample. The results were plotted against the incubation time. Half-lives of the insulin or GLP-1 analogues were determined by nonlinear regression of the results using, for example Graph Pad Prism. The half-lives were expressed relative to the half-live of the insulin or GLP-1 analogue without inhibitor present by dividing the half-lives obtained in the presence of inhibitor with those obtained in the absence of inhibitors. GI juice was prepared from male Sprague Dawley rats (200-250 g) by excising approximately 20 cm piece of mid jejunum and rinsing the inside with 2.5 ml 0.9% sodium chloride solution. The sodium chloride solution was collected in a centrifuge tube, pooled from all rats (20) and centrifuged at 4500 rpm./10 min/4° C. The supernatant was aliquoted in tubes and stored at −80° C.
Degradation of the N-terminally fatty acid modified peptide or oligopeptide of the invention themselves in jejunum extract from rat (GI juice) and determination of half-lives, was measured as described above (example 200).

A short description of data set [2]: Hydrophobicity: retention time during reverse phase HPLC. Format: physicochemical. As to conditions: Acquity CSH C18; pH 7.2 buffer/CH3CN gradient; 40° C. An excerpt: The retention time (RT) during reverse phase HPLC was taken as a measure of hydrophobicity of an N-terminally modified peptide or oligopeptide of the invention, where the connection is: The longer the RT, the more hydrophobic N-terminally modified peptide or oligopeptide. The following running conditions were applied during HPLC analysis:
Buffer B: 70% (v/v) aq. CH3CN

Structures are written as SMILES. Non-standard residues stand in square brackets, D forms with d. Residues, ends and D or L forms follow the SMILES beside them. *: point of attachment. Lauroyl = CCCCCCCCCCCC(=O)*

As for `CCCCCCCCCCCC(=O)N[C@@H](C)C(=O)N[C@@H](C)C(=O)N1CCC[C@H]1C(=O)N[C@@H](Cc1ccccc1)C(=O)O` [Example 34, N-dodecanoyl-Ala-Ala-Pro-Phe-OH] (Lauroyl-AAPF-OH), in the data set on Chymotrypsin, the “Slope of the initial increase in fluorescence obtained during incubation with 0.001 mg/ml Chymotrypsin” value came out at 0.07 and the EC50 worked out at 200 ± 26 µM. In addition, in the data set with Trypsin, the “Slope of the initial increase in fluorescence obtained during incubation with 0.001 mg/ml Trypsin” value came out at 0.31 and the EC50 was 317 µM. Further, the half-life in data set [1] (GI juice (jejunum extract)) was 3.5 min. Moreover, in data set [2], the “RT (retention time during reverse phase HPLC as a measure of hydrophobicity)” value worked out at 6.94 min.
Take `CCCCCCCCCCCC(=O)N[C@H](C)C(=O)N[C@H](C)C(=O)N1CCC[C@@H]1C(=O)N[C@H](Cc1ccccc1)C(=O)O` [Example 1, N-dodecanoyl-DAla-DAla-DPro-DPhe-OH] (Lauroyl-[dA][dA][dP][dF]-OH): in the data set on Chymotrypsin, the “Slope of the initial increase in fluorescence obtained during incubation with 0.001 mg/ml Chymotrypsin” value was determined as 0.41 and the EC50 amounted to 476 µM. Further, in the data set on Trypsin, the “Slope of the initial increase in fluorescence obtained during incubation with 0.001 mg/ml Trypsin” value is reported as 0.39 and the EC50 is over 500 µM. In addition, the half-life at 1 mM in data set [1] (male, Sprague Dawley, rat GI juice (jejunum extract), pH 6.5) is over 1000 min. Moreover, in data set [2], the “RT (retention time during reverse phase HPLC as a measure of hydrophobicity)” value was 6.91 min.
